This note sets out measurements from patent publication US5159069A, “Sulfated tannins and their salts” (Yamanouchi Pharmaceutical Co., Ltd., priority 1988, dated 1992).

For data set [1], the system named is HTLV-IIIB-non-infected MT-4 cells. The data set can be described thus: Toxicity: influence on the proliferation of T cells. It counts as cell-based, human. As for the experimental part:
(§1) HTLV-IIIB-infected MT-4 cells were inoculated on RPMI 1640 culture mediums containing 10% heat-inactivated fetal calf serum, 100 IU/ml of penicillin and 100 μg/ml of streptomycin, to which tannic acid-S had been added in a variety of concentrations, in a cell number of 300,000/ml and were cultured at 37° C. in a carbon dioxide incubator. After the cultivation for three days, one half of the culture medium was withdrawn and the survival rate and the viable count (X 10^4 /ml) of the MT-4 cells in the medium were determined by a trypan blue dye exclusion test. To the remaining cultured cells, an equivalent amount of RPMI 1640 culture medium each containing the same amount of the drugs were added, the cultivation was further continued for additional 3 days and likewise the survival rate and the viable count were determined.
As in Experiment 1, there was observed the influence of the compounds (drugs) of the present invention on the proliferation of HTLV-IIIB-non-infected MT-4 cells. The results thus observed are listed on the following Tables XI to XIV. The numerical values in these Tables mean viable count (X 10^4 /ml) and those in parentheses mean survival rates.

Data set [2] has as its system HTLV-IIIB-infected MT-4 cells. The data set can be described thus: Inhibitory effect on expression of HIV-specific antigen (immunofluorescence). Type of data set: cell-based. Here is the method: After drying the cells cultured in Experiment 1 on a slide glass, they were fixed with methanol for 3 minutes and treated with human anti-HIV-III positive serum (IF antibody titer×4096) which was diluted 1/1,000 time at 37° C. for 30 minutes. Thereafter, it was washed with phosphate-buffered saline (PBS) for 15 minutes and treated with an anti-human IgG conjugated with fluorescein-isothiocyanate at 37° C. for 30 minutes. It was again washed with PBS and then the number of fluorescent cells, more specifically expressed HIV-specific virus antigen proteins were determined with a fluorescence microscope. "%" is a ratio of the number of fluorescent ray emitting cells to the number of total cells.

The subject of data set [3] is MOLT-4 and MOLT-4/HIV HTLV-IIIB cells. Kind of data set: Inhibitory effect on giant cell formation by mixed cultivation of MOLT-4 and MOLT-4/HIV HTLV-IIIB cells. Type of data set: cell-based, human. The settings on record: 24 hours co-culture, co-culture control 18.5%. Here is the method: This experiment was performed by the recently developed method of Yamamoto et al. (see Yamamoto et al., Virology, 1988, 164, p. 542; and J. Clinical Microbiology, 1988, 26, p. 1229).
MOLT-4 cells which are HTLV-I negative human T cell strain, and MOLT-4/HIVHT LV II IB cells which are persistently HIV-infected cells are separately cultured in a RPMI 1640 culture medium supplemented with 10% fetal calf serum to a cell density of 5×10^5 /ml respectively, these were mixed in a ratio of 1:1 and the drug was added thereto.
The mixed culture medium was cultured at 37° C. for 24 hours in a carbon dioxide incubator and the distribution of cell size was determined by a Cell Multisizer (available from Coulter Electronics, Ltd., Luton, England).
In Table IX, the rate of cell having a size of not less than 20 μm is expressed by "%". If MOLT-4 cells and MOLT-4/HIVHT LV II IB cells are separately cultured, the rates are 4.5 and 3.3% respectively, but it increased up to 18.5% when they are co-cultured. When tannic acid-S was added to the mixed culture medium in a concentration of 5 μg/ml, the rate was reduced to 8.2%.

The subject of data set [4] is HTLV-IIIB-infected MT-4 cells. Kind of data set: Inhibitory effect of drugs on HIV-induced cell damage (trypan blue dye exclusion). It counts as cell-based. As for the experimental part: In this experiment, there were used human MT4 cells, a human T4-positive cell line carrying adult T-cell leukemia causative virus, HTLV-1 (Gann Monogr.,1982, Vol. 28, pp. 219 -228) and HTLF-IIIB which is one of the HIV strains.
as §1

Data set [5] concerns avian myeloblastosis virus RTase. Type of data set: biochemical. The following applies: 37° C., 40 minutes. As for the experimental part: According to the method disclosed in Journal of Biological Chemistry, 1987, 262, p. 2187, the RTase inhibitory effect of the compounds of this invention is determined as follows:
More specifically, the compound of the present invention was added, in various amount, to a reaction solution which comprised 80 mM of Tris buffer solution (pH 8), 6 mM of magnesium chloride, 80 mM of potassium chloride, 10 mM of dithiothreitol, 20 μg/ml of polyadenylic acid, 0.02 μg/ml of oligodeoxy thymidine, 20 μM of tritium-labeled deoxythymidine-triphosphate and avian myeloblastosis virus RTase so that the total volume of the resultant solution was equal to 100 μl. After the reaction solution was incubated at 37° C. for 40 minutes, 100 μl of an ice-cooled 10% trichloroacetic acid solution was added to the solution to stop the reaction.
The reaction solution was filtered through a glass filter (Whatmann GF/C) and washed with a 10% trichloroacetic acid solution and then with ethanol. Thereafter, the glass filter was dried and examined by liquid scintillation counter.

Where [6] appears, read: drug 50 μg/ml, culture period 3 days.
Where [7] appears, read: drug 50 μg/ml, culture period 6 days.
Where [8] appears, read: drug 100 μg/ml, culture period 3 days.
[9] abbreviates: drug 100 μg/ml, culture period 6 days.
Where [10] appears, read: drug 200 μg/ml, culture period 3 days.
[11] abbreviates: drug 200 μg/ml, culture period 6 days.
The mark [12] stands for this setting: drug 400 μg/ml, culture period 3 days.
Where [13] appears, read: drug 400 μg/ml, culture period 6 days.

With “sodium salt of ellagic acid sulfate [Ellagic acid-S]”, the Viable count in data set [1] (setting [6]) is 700000 mL⁻¹; in data set [1] (setting [7]), 1.37e+06 mL⁻¹; in data set [1] (setting [8]) it was 990000 mL⁻¹; in data set [1] (setting [9]) it was 1.09e+06 mL⁻¹; in data set [1] (setting [10]), 990000 mL⁻¹; in data set [1] (setting [11]), 1.04e+06 mL⁻¹. In addition, the Viable count in data set [1] (setting [12]) was found to be 810000 mL⁻¹; in data set [1] (setting [13]) it was 700000 mL⁻¹; in data set [4] (setting [6]) it was 740000 mL⁻¹; in data set [4] (setting [7]), 230000 mL⁻¹; in data set [4] (setting [8]), 810000 mL⁻¹; in data set [4] (setting [9]), 1.03e+06 mL⁻¹. Further, the Viable count in data set [4] (setting [10]) is 830000 mL⁻¹; in data set [4] (setting [11]), 860000 mL⁻¹; in data set [4] (setting [12]), 730000 mL⁻¹; in data set [4] (setting [13]) it was 470000 mL⁻¹. Besides, the survival rate in data set [1] (setting [6]) is 84; in data set [1] (setting [7]), 89; in data set [1] (setting [8]), 87; in data set [1] (setting [9]), 83; in data set [1] (setting [10]) it was 83; in data set [1] (setting [11]), 85. Further, the survival rate stood at 84 in data set [1] (setting [12]); 82 in data set [1] (setting [13]); 82% in data set [4] (setting [6]); 43% in data set [4] (setting [7]); 84% in data set [4] (setting [8]); 78% in data set [4] (setting [9]). Moreover, the survival rate in data set [4] (setting [10]) is 87%; in data set [4] (setting [11]), 83%; in data set [4] (setting [12]), 82%; in data set [4] (setting [13]), 89%. Besides, the “Ratio of fluorescent ray emitting cells to total cells” value (shortened to “Ratio”) is listed as less than 1% in data set [2] (setting [6]); 90% in data set [2] (setting [7]); less than 1% in data set [2] (setting [8]); 6.4% in data set [2] (setting [9]); less than 1% in data set [2] (setting [10]); less than 1% in data set [2] (setting [11]). Also, the results for the “Ratio” value in data set [2] (setting [12]) and in data set [2] (setting [13]) were 0% and less than 1%, respectively. Also, the “Rate of Giant Cell (cells of size not less than 20 μm)” value in data set [3] (drug 25 μg/ml) stood at 15.1%; in data set [3] (drug 50 μg/ml) it was 17.0%; in data set [3] (drug 100 μg/ml), 13.0%; in data set [3] (drug 200 μg/ml) it was 9.5%.
As for “sodium salt of epicatechin sulfate [Epicatechin-S]”, the Viable count in data set [1] (setting [6]) was found to be 1.14e+06 mL⁻¹; in data set [1] (setting [7]), 1.38e+06 mL⁻¹; in data set [1] (setting [8]), 1.1e+06 mL⁻¹; in data set [1] (setting [9]), 1.47e+06 mL⁻¹; in data set [1] (setting [10]) it was 1.11e+06 mL⁻¹; in data set [1] (setting [11]) it was 1.33e+06 mL⁻¹. For the same substance, the Viable count in data set [1] (setting [12]) was determined as 1.18e+06 mL⁻¹; in data set [1] (setting [13]), 1.37e+06 mL⁻¹; in data set [4] (setting [6]), 940000 mL⁻¹; in data set [4] (setting [7]), 450000 mL⁻¹; in data set [4] (setting [8]), 990000 mL⁻¹; in data set [4] (setting [9]) it was 1.1e+06 mL⁻¹. Further, the Viable count in data set [4] (setting [10]) was determined as 890000 mL⁻¹; in data set [4] (setting [11]) it was 1.22e+06 mL⁻¹; in data set [4] (setting [12]) it was 910000 mL⁻¹; in data set [4] (setting [13]), 1.33e+06 mL⁻¹. Besides, the survival rate in data set [1] (setting [6]) is listed as 91; in data set [1] (setting [7]), 85; in data set [1] (setting [8]) it was 86; in data set [1] (setting [9]) it was 93; in data set [1] (setting [10]), 83; in data set [1] (setting [11]) it was 92. In addition, the survival rate was 86 in data set [1] (setting [12]); 92 in data set [1] (setting [13]); 95% in data set [4] (setting [6]); 63% in data set [4] (setting [7]); 87% in data set [4] (setting [8]); 92% in data set [4] (setting [9]). Further, the survival rate in data set [4] (setting [10]) turned out to be 86%; in data set [4] (setting [11]) it was 91%; in data set [4] (setting [12]), 85%; in data set [4] (setting [13]), 91%. Moreover, the “Ratio” value in data set [2] (setting [6]) was less than 1%; in data set [2] (setting [7]), 90%; in data set [2] (setting [8]), less than 1%; in data set [2] (setting [9]) it was less than 1%; in data set [2] (setting [10]) it was less than 1%; in data set [2] (setting [11]), less than 1%. The “Ratio” value in data set [2] (setting [12]) and in data set [2] (setting [13]) was less than 1% throughout. Moreover, the “Rate of Giant Cell (cells of size not less than 20 μm)” value in data set [3] (drug 25 μg/ml) was found to be 14.2%; in data set [3] (drug 50 μg/ml), 14.0%; in data set [3] (drug 100 μg/ml), 15.1%; in data set [3] (drug 200 μg/ml) it was 13.9%.
With “sodium salt of sulfated 3,4,5- trigalloylquinic acid [Example 12]”, in data set [5], the “RTase Inhibitory Effect (IC50)” value is 9.2 µg/mL.
As for “sodium salt of sulfuric acid ester of 1,2,3,4,6-penta-O-galloyl-β-D-glucose [Example 7]”, in data set [5], the “RTase Inhibitory Effect (IC50)” value turned out to be 0.45 µg/mL.
On to “sodium salt of sulfuric acid ester of 1,2,3,4,6-penta-O-galloyl-β-D-glucose [Example 9]”, for which the “RTase Inhibitory Effect (IC50)” value in data set [5] was less than 0.096 µg/mL.
